{"source": "patent US20150336985A1", "about": "“FUNGICIDAL HETEROCYCLIC COMPOUNDS” (E. I. DU PONT DE NEMOURS AND COMPANY, priority 2012, published 2015)", "key": {"[1]": {"system": "Plasmopara viticola", "test": "Test A: grape downy mildew, curative spray on inoculated grape seedlings, visual disease rating", "type": "in vivo, Plasmopara viticola (on grape seedlings)", "conditions": "40 ppm, rating 100 = 100% disease control, 0 = no disease control relative to the controls"}, "[2]": {"system": "Phytophthora infestans", "type": "in vivo, Phytophthora infestans (on tomato seedlings)", "conditions": "40 ppm; tomato late blight, preventive; rating 100 = 100% disease control, 0 = no disease control relative to the controls"}, "[3]": {"system": "Phytophthora infestans", "type": "in vivo, Phytophthora infestans (on tomato seedlings)", "conditions": "40 ppm; tomato late blight, curative (17 h after inoculation); rating 100 = 100% disease control, 0 = no disease control relative to the controls"}}}
{"smiles": "Cc1cc(C(F)(F)F)nn1CC(=O)N1CCC(c2nc3c(s2)CCC(Cc2c(F)cccc2F)C3=O)CC1", "note": "(single isomer, unassigned) [Compound 5, 5-[(2,6-difluorophenyl)methyl]-6,7-dihydro-2-[1-[2-[5-methyl-3-(trifluoromethyl)-1H-pyrazol-1-yl]acetyl]-4-piperidinyl]-4(5H)-benzonthiazolone]", "values": [{"measurement": "Test A rating (disease control)", "setting": "[1]", "result": 99}, {"measurement": "Test B1 rating (disease control)", "setting": "[2]", "result": 100}, {"measurement": "Test B2 rating (disease control)", "setting": "[3]", "result": 99}]}
{"smiles": "Cc1cc(C(F)(F)F)nn1CC(=O)N1CCC(c2nc3c(s2)CCC(Cc2c(F)cccc2F)C3=O)CC1", "note": "(single isomer, unassigned) [Compound 6, 5-[(2,6-difluorophenyl)methyl]-6,7-dihydro-2-[1-[2-[5-methyl-3-(trifluoromethylene)-1H-pyrazol-1-yl]acetyl]-4-piperidinyl]-4(5H)-benzothiazolone]", "values": [{"measurement": "Test A rating (disease control)", "setting": "[1]", "result": 78}, {"measurement": "Test B1 rating (disease control)", "setting": "[2]", "result": 100}, {"measurement": "Test B2 rating (disease control)", "setting": "[3]", "result": 78}]}
{"smiles": "Cc1cc(C(F)(F)F)nn1CC(=O)N1CCC(c2nc3c(s2)CCN(Cc2ccccc2)C3=O)CC1", "note": "[Compound 8, 6,7-dihydro-2-[1-[2-[5-methyl-3-(trifluoromethyl)-1H-pyrazol-1-yl]acetyl]-4-piperidinyl]-5-(phenylmethyl)thiazolo[4,5-c]pyridin-4(5H)-one]", "values": [{"measurement": "Test A rating (disease control)", "setting": "[1]", "result": 100}, {"measurement": "Test B1 rating (disease control)", "setting": "[2]", "result": 100}, {"measurement": "Test B2 rating (disease control)", "setting": "[3]", "result": 99}]}
